Structures can show the parent of a compound that is named as a salt.
Test: in vitro
Settings: rat, gh3-tre-luc cells, AC50 (uM) modified / 1000

SMILES | CC50 at 24 h [µM]
CO/N=C(\C(=O)N[C@@H]1C(=O)N2C(C(=O)O)=C(CSC(=O)c3ccco3)CS[C@H]12)c1csc(N)n1 [Ceftiofur] | > 50
CCCCCCC(C)O (centres unmarked) [2-Octanol] | > 90
COc1ccc(CCNCC(O)COc2cccc(C)c2)cc1OC (centres unmarked) [Bevantolol hydrochloride] | 20.6
CC(=O)c1ccc[nH]1 [2-Acetylpyrrole] | > 90
CCCCCCCCCCCCCCCC(=O)OC[C@H](O)[C@H]1OC(=O)C(O)=C1O [Ascorbyl palmitate] | > 50
CCCCCCC(C)(C)S [tert-Nonanethiol] | > 90
CCOc1ccc(C(=O)OCCN(CC)CC)cc1 [Parethoxycaine] | > 50
CN(C)CCC=C1c2ccccc2C(C)(C)c2ccccc21 [Melitracen hydrochloride] | 19.6
C=CCOc1c(Br)cc(C(C)(C)c2cc(Br)c(OCC=C)c(Br)c2)cc1Br [Tetrabromobisphenol A diallyl ether] | > 50
O=C1CCc2ccc(OCCCCN3CCN(c4cccc(Cl)c4Cl)CC3)cc2N1 [Aripiprazole] | 11.8
C=C(C)CC(C)(C)C [2,4,4-Trimethyl-1-pentene] | > 90
ICCc1ccccc1 [2-Iodoethylbenzene] | > 90
Clc1cc(Cl)c(Cl)c(Cl)c1Cl [Pentachlorobenzene] | > 90
CCN1CCC[C@H]1CNC(=O)c1c(OC)ccc(Br)c1OC [Remoxipride] | > 50
O=[N+]([O-])c1cccc(I)c1 [1-Iodo-3-nitrobenzene] | > 90
C[C@H]1COc2c(C3(N)CC3)c(F)cc3c(=O)c(C(=O)O)cn1c23 [Pazufloxacin] | > 50
O=C(Nc1cccc(C2=NCCN2)c1)Nc1cccc(C2=NCCN2)c1 [Imidocarb dipropionate] | > 50
C=C(C)C(=O)NCCC[N+](C)(C)C [N,N,N-Trimethyl-3-[(2-methylacryloyl)amino]propan-1-aminium chloride] | > 90
CN(C)C(=O)CCSC(SCCC(=O)O)c1cccc(/C=C/c2ccc3ccc(Cl)cc3n2)c1 (centres unmarked) [MK-571 sodium] | 28.9
CCc1nnc(NS(=O)(=O)c2ccc(N)cc2)s1 [Sulfaethidole] | > 50
O=C1CCc2cc(OCCCCc3nnnn3C3CCCCC3)ccc2N1 [Cilostazol] | > 50
c1ccc(-c2cccc(-c3ccccc3)c2)cc1 [1,1':3',1''-Terphenyl] | > 90
Oc1cccc(O)c1O [Pyrogallol] | 44.6
CS(=O)(=O)c1ccc(Cl)cc1 [4-Chlorophenyl methyl sulfone] | > 90
CC(NCCC(c1ccccc1)c1ccccc1)c1ccccc1 (centres unmarked) [Fendiline hydrochloride] | 6.49
O=C1C(O)=C(O)C(=O)C(O)=C1O [Tetroquinone] | > 50
CC(C)C(=O)OCC(C)(C)C(OC(=O)C(C)C)C(C)C (centres unmarked) [2,2,4-Trimethyl-1,3-pentanediol diisobutyrate] | > 90

SMILES | CC50 at 24 h [µM]
O=c1cc(-c2ccccc2)oc2ccccc12 [Flavone] | > 90
CC(=O)Nc1ccc(S(=O)(=O)Cl)cc1 [4-(Acetylamino)benzenesulfonyl chloride] | > 90
O=C(CCCN1CCC(n2c(=S)[nH]c3ccccc32)CC1)c1ccc(F)cc1 [Timiperone] | 23.9
O=C(OCc1ccccc1)c1cccnc1 [Benzyl nicotinate] | > 50
CC(S)C(C)S (centres unmarked) [2,3-Butanedithiol] | > 100
Nc1ncnc2c1ncn2[C@@H]1O[C@H](CO)[C@@H](O)[C@H]1O [Adenosine] | > 50
CC(=O)Oc1ccccc1C(=O)O [Aspirin] | > 90
O=c1c2ccccc2[se]n1-c1ccccc1 [Ebselen] | 19.6
Cc1cccc(O)c1 [m-Cresol] | > 100
N#CCc1cccc(C(F)(F)F)c1 [[3-(Trifluoromethyl)phenyl]acetonitrile] | > 90
Nc1cccc(O)c1 [3-Aminophenol] | > 90
CC1=NN(c2cccc(S(=O)(=O)O)c2)C(=O)C1 [3-(3-Methyl-5-oxo-4,5-dihydro-1H-pyrazol-1-yl)benzenesulfonic acid] | > 90
CC1OC(=O)C(C)OC1=O (centres unmarked) [3,6-Dimethyl-2,5-dioxo-1,4-dioxane] | > 90
O=C(O)CCSCCC(=O)O [3,3'-Thiodipropionic acid] | > 90
CCCCCCCCSCCO [2-Hydroxyethyl octyl sulfide] | > 90
Cc1ccccc1OCC(O)CNCCOc1ccc(C(N)=O)cc1 (centres unmarked) [Tolamolol] | 13.4
Oc1c(Cl)cccc1Cl [2,6-Dichlorophenol] | > 90
CCN(CCO)c1cccc(C)c1 [2-(N-Ethyl-m-toluidino)ethanol] | > 90
Cc1ccc(S(=O)(=O)NC(=O)NN2CCCCCC2)cc1 [Tolazamide] | > 90
Nc1c2c(nc3c1CCC3)CCCC2 [Ipidacrine hydrochloride hydrate] | > 50
CCc1cn([C@H]2C[C@H](O)[C@@H](CO)O2)c(=O)[nH]c1=O [Edoxudine] | > 50
C(=C\c1ccccc1)/c1ccccc1 [trans-Stilbene] | > 100
CCO[Si](CCCSSSSCCC[Si](OCC)(OCC)OCC)(OCC)OCC [4,4,15,15-Tetraethoxy-3,16-dioxa-8,9,10,11-tetrathia-4,15-disilaoctadecane] | 70.3
Cc1oc(C)c(C(=O)Nc2ccccc2)c1C [Methfuroxam] | > 90
CCCCC/C=C\C/C=C\CCCCCCCC(=O)NC(C)c1ccccc1 (centres unmarked) [Melinamide] | > 50
CN1C(=O)c2ccc([N+](=O)[O-])cc2C1=O [N-Methyl-4-nitrophthalimide] | > 90
CN1CCN(CCCN2c3ccccc3Sc3ccc(Cl)cc32)CC1 [Prochlorperazine dimaleate] | 5.73

SMILES | CC50 at 24 h [µM]
CC(C)C(C)C [2,3-Dimethylbutane] | > 90
COC(=O)CC(C(C)=O)C(=O)OC (centres unmarked) [Dimethyl acetylsuccinate] | > 90
C[C@H]1O[C@@H](n2cc(F)c(=O)[nH]c2=O)[C@H](O)[C@@H]1O [Doxifluridine] | > 50
CCCCCCCCOS(=O)(=O)O [Sodium octyl sulfate] | > 90
CCC(C)(C)C(=O)O [2,2-Dimethylbutanoic acid] | > 90
CC[N+](CC)(CC)CCOc1cccc(OCC[N+](CC)(CC)CC)c1OCC[N+](CC)(CC)CC [Gallamine triethiodide] | > 50
Cc1ccc(N/N=c2\c(=O)cc/c(=N/Nc3ccc(S(=O)(=O)O)cc3)c2=O)c(C)c1 [C.I. Acid Orange 24, monosodium salt] | 59.4
O=C(O)c1ccc(O)cc1O [2,4-Dihydroxybenzoic acid] | > 90
BrCC(Br)C1CCC(Br)C(Br)C1 (centres unmarked) [1,2-Dibromo-4-(1,2-dibromoethyl)cyclohexane] | 55.8
NCCCNCCCN [Norspermidine] | 57.5
Cc1ccc2c(c1)C(=O)c1ccccc1C2=O [2-Methylanthraquinone] | > 90
C[Si]1(C)O[Si](C)(C)O[Si](C)(C)O[Si](C)(C)O[Si](C)(C)O1 [Decamethylcyclopentasiloxane] | > 90
O=C1OC(=O)c2cc(-c3ccc4c(c3)C(=O)OC4=O)ccc21 [5,5'-Bi-2-benzofuran-1,1',3,3'-tetrone] | > 90
CN(C)CCCN(C)C [N,N,N',N'-Tetramethyl-1,3-propanediamine] | > 5
CO[C@@]1(NC(=O)CSCC#N)C(=O)N2C(C(=O)O)=C(CSc3nnnn3C)CS[C@@H]21 [Cefmetazole sodium] | > 50
CCCCCCCCCCCCCBr [1-Bromotridecane] | > 90
NC(=S)C(N)=S [Dithiooxamide] | > 90
CCCc1ccc(OC)cc1 [4-Propylanisole] | > 90
CC(=O)Oc1cccc2c1C(=O)c1c(OC(C)=O)cc(C(=O)O)cc1C2=O [Diacerein] | > 50
C#CCN[C@@H]1CCc2ccccc21 [Rasagiline mesylate] | > 50
CCOc1cccc(-n2cc(C(=O)N3CCN(c4cc(C(=O)O)c5ccccc5c4)CC3)nc2-c2ccc(C)cc2)c1 [PharmaGSID_47337] | 77.9
CCCCC(CC)CO (centres unmarked) [2-Ethyl-1-hexanol] | > 90
CC(C)c1ccccc1 [Cumene] | > 100
NC(=O)[C@@H]1C[C@]2(NC(=O)NC2=O)c2cc(F)ccc2O1 [Fidarestat] | > 50
O=c1oc2cc(O)ccc2s1 [Thioxolone] | > 50

Same assay, conditions: rat, gh3-tre-luc cells, AC50 (uM) modified / 1000, Tox21_110001=Tox21_110352; viability, 1 nM T3 present, 24 h

SMILES | CC50 at 24 h [µM]
CCC1(C)CC(=O)NC(=O)C1 [Bemegride] | > 20

Same assay, conditions: rat, gh3-tre-luc cells, AC50 (uM) modified / 1000, Tox21_110001=Tox21_113540; viability, 1 nM T3 present, 24 h

SMILES | CC50 at 24 h [µM]
Oc1ccc2c3c1O[C@H]1[C@@H](O)C=C[C@H]4[C@@H](C2)NCC[C@@]341 [Normorphine] | > 50

Same assay, conditions: rat, gh3-tre-luc cells, AC50 (uM) modified / 1000, Tox21_110001=Tox21_200327; viability, 1 nM T3 present, 24 h

SMILES | CC50 at 24 h [µM]
Brc1ccc(Oc2ccc(Br)cc2Br)c(Br)c1 [2,2'4,4'-Tetrabromodiphenyl ether] | 83.3

Same assay, conditions: rat, gh3-tre-luc cells, AC50 (uM) modified / 1000, Tox21_110001=Tox21_200365; viability, 1 nM T3 present, 24 h

SMILES | CC50 at 24 h [µM]
CC(C)[N+](=O)[O-] [2-Nitropropane] | > 90

Same assay, conditions: rat, gh3-tre-luc cells, AC50 (uM) modified / 1000, Tox21_110001=Tox21_201305; viability, 1 nM T3 present, 24 h

SMILES | CC50 at 24 h [µM]
O=C/C(Cl)=C(/Cl)C(=O)O [Mucochloric acid] | 74

Same assay, conditions: rat, gh3-tre-luc cells, AC50 (uM) modified / 1000, Tox21_110001=Tox21_302651; viability, 1 nM T3 present, 24 h

SMILES | CC50 at 24 h [µM]
C=CC(=O)OCCCCO [4-Hydroxybutyl prop-2-enoate] | 73.9

Same assay, conditions: rat, gh3-tre-luc cells, AC50 (uM) modified / 1000, Tox21_110001=Tox21_302857; viability, 1 nM T3 present, 24 h

SMILES | CC50 at 24 h [µM]
O=C/C(Cl)=C(/Cl)C(=O)O [Mucochloric acid] | 63.6

Reference: article PMC6792352, “Limited Chemical Structural Diversity Found to Modulate Thyroid Hormone Receptor in the Tox21 Chemical Library” (Environmental Health Perspectives, 2019)
